Here are results for two molecules from paper PMC12405493, “Selective ubiquitination of drug-like small molecules by the ubiquitin ligase HUWE1” (Nature Communications, 2025).

The test system of experiment [1] is other HECT domains. More on the design: method as in PMID 25253726. The following applies: in vitro; cited from earlier work.
In experiment [2] the test system is HUWE1 substrates, such as MCL1. More on the design: method as in PMID 25253726. The settings on record: MCL1 upon DNA damage induction; cited from earlier work.
For experiment [3], the target named is T1, vinylthioether-linked HUWE1^HECT-Ub complex (Homo sapiens, UniProt Q7Z6Z7).
T1 construct: The preparation of the vinylthioether-linked HUWE1^HECT-Ub complex was also previously described; made in house; host or cells: bacteria (components)
As to the kind of experiment: Differential scanning fluorimetry (DSF) with HUWE1^HECT~Ub proxy. Type of experiment: binding. The settings on record: 10 μM protein. The method, then: DSF was performed in 25 mM HEPES (pH 7.5), 100 mM NaCl, 1 mM TCEP and 0.4% (v/v) DMSO, using a CFX96 Touch Real-Time PCR Detection System (BioRad). 10 μM HUWE1^HECT and HUWE1^HECT-Ub, respectively, at a sample volume of 25 μL were denatured by a linear 25–95 °C gradient over 120 min in a presence of 10 x SYPRO Orange (Invitrogen). Tm-values were determined as the first derivative of the fluorescence curves, using CFX Maestro™ v.1.1 (Bio-Rad). Melting curves were plotted as normalized -d(fluorescence)/dt with Prism v.9.3.1 (GraphPad).
(In DSF a fluorescence change marks the thermal transition of the protein.)

The target in experiment [4] is T2, HUWE1^HECT (Homo sapiens, UniProt Q7Z6Z7).
T2 construct: the isolated HECT domain of HUWE1 (HUWE1^HECT); made in house
T2 sequence (Q7Z6Z7 4038-4374 limits assumed): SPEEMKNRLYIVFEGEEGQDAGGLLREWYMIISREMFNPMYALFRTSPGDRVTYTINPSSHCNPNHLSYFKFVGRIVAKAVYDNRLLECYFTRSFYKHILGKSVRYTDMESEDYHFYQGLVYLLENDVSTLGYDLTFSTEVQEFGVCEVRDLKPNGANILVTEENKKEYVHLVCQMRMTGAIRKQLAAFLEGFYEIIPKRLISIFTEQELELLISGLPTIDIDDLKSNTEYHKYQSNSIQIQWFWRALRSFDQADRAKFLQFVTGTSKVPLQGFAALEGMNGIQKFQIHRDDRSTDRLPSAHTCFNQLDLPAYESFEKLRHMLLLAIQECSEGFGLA
In words: HUWE1^HECT multi-turnover ubiquitination reactions (fluorescent Ub tracer, SDS-PAGE). Type of experiment: biochemical. The following applies: E2 UBE2L3, varying concentrations. How it is done: HUWE1^HECT multi-turnover ubiquitination reactions were performed for 30 minutes (unless stated otherwise) with 200 nM UBA1, 5 μM UBE2L3 or UBE2D3 (as specified), 1 μM HUWE1^HECT and 30 μM Ub in 25 mM HEPES (pH 7.5), 100 mM NaCl, 3 mM MgCl2, and 0.5 mM TCEP. HUWE1^FL multi-turnover ubiquitination reactions included 50 nM UBA1, 2.5 μM UBE2L3, 0.05 μM HUWE1^FL, 0.5 μM MCL1 (or 0.5 μM H2B or 1 μM FOXP3) and 20 μM Ub in 20 mM HEPES (pH 7.5), 100 mM NaCl, 3 mM MgCl2, and 0.5 mM TCEP. All multi-turnover reactions were started by the addition of 1 mM ATP, incubated at 30 °C, quenched with SDS-loading dye. If not stated otherwise, HUWE1^FLautoubiquitination reactions were incubated for 20 minutes. Substrate ubiquitination reactions with MCL1 or H2B were incubated for 10 and 20 min, respectively; those with FOXP3 for 30 min. Those reactions that were monitored by fluorescence contained a fluorescent Ub tracer (IRDye 800CW maleimide; LI-COR)[55] and were monitored using an Odyssey CLx scanner (LI-COR), followed by Coomassie staining. In the fluorescence images, only those marker bands are labeled (in kDa) that are visible by fluorescence; all marker bands are labeled in the Coomassie-stained images. Statistical analyses were performed with Prism 9 v.9.3.1 (GraphPad).

In general, pIC50 refers to −log10 of the IC50, conventionally taken in molar units.

Structures are written as SMILES. pIC50: −log10 of the molar value. Where only a bound is given, the exact number is not on record here.

For `Cc1c(C(=O)Nc2ccc(CN)cc2)ncnc1N1CCC(C#N)(c2ccccc2)CC1` [BI8622], in experiment [1], the pIC50 was less than 4.30. Further, the “Stabilization of HUWE1 substrates” value in experiment [2] is “stabilize individual HUWE1 substrates under certain conditions, such as MCL1 upon DNA damage induction”. In addition, in experiment [3], the “Interaction with HUWE1^HECT-Ub by DSF” value is “no interactions between HUWE1^HECT-Ub and the inhibitors could be detected”. Moreover, the “Inhibition of HUWE1^HECT-driven ubiquitination” value in experiment [4] is on record as “inhibit ubiquitination dose-dependently in the low-micromolar concentration range”.

On to `NCc1cccc(CNc2ncnc3c(N4CCN(Cc5ccccc5)CC4)ncnc23)c1` [BI8626], for which the pIC50 in experiment [1] is less than 4.30. In experiment [2], the “Stabilization of HUWE1 substrates” value is on record as “stabilize individual HUWE1 substrates under certain conditions, such as MCL1 upon DNA damage induction”. The “Interaction with HUWE1^HECT-Ub by DSF” value in experiment [3] was “no interactions between HUWE1^HECT-Ub and the inhibitors could be detected”. Moreover, the “Inhibition of HUWE1^HECT-driven ubiquitination” value in experiment [4] is reported as “inhibit ubiquitination dose-dependently in the low-micromolar concentration range”.
